PMC3774728, “Identification of the Plant Compound Geraniin as a Novel Hsp90 Inhibitor” (PLoS ONE, 2013)

Tests used:
[1] = biological target: T1, recombinant Hsp90α (Homo sapiens, UniProt P07900); experiment: Surface plasmon resonance binding to immobilized Hsp90α; settings: SPR, immobilized Hsp90α, 25°C, single-site bimolecular model, 0.025-1 µM; read-out: KD
T1 construct: purchased Assay Designs (Ann Arbor, MI, USA)
Description: SPR analyses were carried out according to our previously published procedures, [23]. Briefly, SPR analyses were performed using a Biacore 3000 optical biosensor equipped with research−grade CM5 sensor chips (GE Healthcare). Using this platform, two separate recombinant Hsp90α surfaces, a BSA surface and one unmodified reference surface were prepared for simultaneous analyses. Proteins (100 µg mL^−1 in 10 mM CH3COONa, pH 5.0) were immobilized on individual sensor chip surfaces at a flow rate of 5 µL min^−1 using standard amine−coupling protocols to obtain densities of 8–12 kRU. Polyphenols, as well as 17-AAG and hardwickiic acid (HA), were dissolved in 100% DMSO to obtain 4 mM solutions, and diluted 1∶200 (v/v) in PBS (10 mM NaH2PO4, 150 mM NaCl, pH 7.4) to a final DMSO concentration of 0.5%. […] Binding experiments were performed at 25°C, using a flow rate of 50 µL min^−1, with 60 s monitoring of association and 300 s monitoring of dissociation. Simple interactions were suitably fitted to a single−site bimolecular interaction model (A+B = AB), yielding a single K D. Sensorgram elaborations were performed using the BIAevaluation software provided by GE Healthcare.
Putative interactions of different plant-derived phenolic compounds with Hsp90α were evaluated by a SPR-based approach.

[2] = test system: HeLa cells; experiment: MTT cell viability, HeLa; format: cell-based, human; settings: Homo sapiens, 24 h
Description: (§1) To ensure logarithmic growth, cells were subcultured every two days. As control cells, human peripheral blood mononuclear cells (PBMC) were isolated from buffy coats of healthy donors (kindly provided by the Blood Center of the Hospital of Battipaglia, Salerno, Italy) by using standard Ficoll−Hypaque gradients. […] Proliferation of PBMC was induced by phytohemagglutinin (PHA) (10 µg mL^−1). Tumor and PBMC cells were treated with different concentrations of geraniin or 17-AAG to evaluate their cytotoxic effects. Stock solutions of geraniin (50 mM in DMSO) and 17-AAG (10 mM in DMSO) were stored a −20°C in the dark and diluted just before addition to the sterile culture medium. In all the experiments, the final concentration of DMSO was 0.10% (v/v).
(§2) Jurkat (2×10^4/well) and HeLa (5000/well) cells were seeded in triplicate in 96 well−plates and incubated for 24 h in the absence or presence of different concentrations of geraniin (between 0,5 µM to 50 µM) or 17-AAG (between 0,5 nM to 10 µM).
(§3) The number of viable cells was determined by using a [3–4,5-dimethyldiazol-2-yl]-2,5-diphenyl tetrazolium bromide (MTT, Sigma-Aldrich) conversion assay, according to the method described by Mosmann. […] The absorbance was measured with a microplate reader (Titertek multiskan MCC7340, LabSystems, Vienna, VA, USA) equipped with a 620 nm filter. […]

[3] = test system: Jurkat cells; experiment: MTT cell viability, Jurkat; format: cell-based, human; settings: Homo sapiens, 24 h
Description: as §1, §2, §3

[4] = test system: Jurkat cells; experiment: Cell cycle and hypodiploidy by flow cytometry (PI), Jurkat; format: cell-based, human; settings: 24 h, geraniin 0.7 µM, 17-AAG 10 µM
Description: (§4) Cell DNA content was measured by propidium iodide (PI) incorporation into permeabilized cells, as described by Nicoletti et al.. Briefly, the cells were harvested after geraniin or 17-AAG treatments were washed with cold PBS and incubated with a PI solution (0.1% sodium citrate, 0.1% Triton X-100 and 50 µg mL^−1 of prodium iodide, Sigma-Aldrich, 10 µg/ml Rnase A) for 30 min at room temperature. Data from 10.000 events per sample were collected by a FACScalibur flow cytometer (Becton Dickinson, San José, CA) and cellular debris was excluded from analysis by raising the forward scatter threshold. The percentage of cells in the sub G0/G1 phase, apoptotic fraction, was quantified using CellQuest software (Becton Dickinson). The distribution of cells in G0/G1, S, G2/M phases was determined using ModFit LT cell cycle analysis software (Becton Dickinson). Results were expressed as a mean ± SD of three experiments performed in triplicate.
(§5) Figure 6 Effects of geraniin and 17-AAG on cell cycle progression. Percentage of cell cycle stages was analyzed by flow cytometry, (A) PI-stained viable Jurkat cells treated with DMSO, 0.7 µM geraniin or 10 µM 17-AAG for 24 h.

[5] = test system: HeLa cells; experiment: Cell cycle and hypodiploidy by flow cytometry (PI), HeLa; format: cell-based, human; settings: 24 h, geraniin 5 µM, 17-AAG 0.2 µM
Description: as §4, §5

[6] = test system: PHA-stimulated proliferating PBMC; experiment: Hypodiploidy/necrosis by flow cytometry, PHA-stimulated PBMC; format: cell-based, human; settings: untreated cells 1.5±0.8%
Description: Jurkat and HeLa (epithelial carcinoma) cells, obtained from Cell Bank in GMP-IST (Genova, Italy) were maintained in RPMI 1640 medium or Dulbecco’s modified Eagle medium (DMEM), respectively, supplemented with 10% (v/v) FBS, 2 mM L−glutamine and antibiotics (100 U mL^−1 penicillin, 100 µg mL^−1 streptomycin) purchased from Invitrogen (Carslbad, CA, USA), at 37°C in humidified atmosphere with 5% CO2. To ensure logarithmic growth, cells were subcultured every two days. As control cells, human peripheral blood mononuclear cells (PBMC) were isolated from buffy coats of healthy donors (kindly provided by the Blood Center of the Hospital of Battipaglia, Salerno, Italy) by using standard Ficoll−Hypaque gradients. Freshly isolated PBMC contained 92.8±3.1% live cells. Proliferation of PBMC was induced by phytohemagglutinin (PHA) (10 µg mL^−1). […]
Cell DNA content was measured by propidium iodide (PI) incorporation into permeabilized cells, as described by Nicoletti et al.. […] The percentage of cells in the sub G0/G1 phase, apoptotic fraction, was quantified using CellQuest software (Becton Dickinson). The distribution of cells in G0/G1, S, G2/M phases was determined using ModFit LT cell cycle analysis software (Becton Dickinson). Results were expressed as a mean ± SD of three experiments performed in triplicate.

- Kd [1]: 415 ± 27 nM
- IC50 [2]: 5100 ± 200 nM
- IC50 [3]: 760 ± 100 nM
SMILES: O=C1O[C@H]2[C@@H]3OC(=O)c4cc(O)c(O)c(O)c4-c4c(cc(O)c(O)c4O)C(=O)OC[C@H]2O[C@@H](OC(=O)c2cc(O)c(O)c(O)c2)[C@@H]3OC(=O)c2cc(O)c(O)c3c2[C@@H]2C1=CC(=O)[C@](O)(O3)C2(O)O [Compound 54, geraniin]
- cell cycle arrest [4]: G2/M arrest
- percentage of cells with hypodiploid nuclei [4]: 9.75±1.02%
- cell cycle arrest [5]: G2/M arrest
- percentage of cells with hypodiploid nuclei [5]: 16.2±0.7%
- levels of hypodiploidy/necrosis [6]: 2.6±1.3%
